Earlier results as cited in US20140134224A1, “STABLE COMPOSITION OF HOCI, A PROCESS FOR ITS PRODUCTION AND USES THEREOF” (priority 2011, published 2014).
Like-named read-outs stand apart in the source and are kept apart here.

Key:
B. metiens spores = settings: 25 ppm available chlorine
[1] = unstabilised HOCl solutions of the prior art
[2] = Kapoor 1968

SMILES	time taken to produce a 99% kill of spores (B. metiens spores; pH 6)	time taken to produce a 99% kill of spores (B. metiens spores; pH 7)	time taken to produce a 99% kill of spores (B. metiens spores; pH 8)	time taken to produce a 99% kill of spores (B. metiens spores; pH 9)	time taken to produce a 99% kill of spores (B. metiens spores; pH 9.35)	time taken to produce a 99% kill of spores (B. metiens spores; pH 10)	time taken to produce a 99% kill of spores (B. metiens spores; pH 12.86)	half-life [1]	times less effective than hypochlorous acid as a disinfectant [2]
OCl [HOCl, Hypochlorous (or hydrochlorous) acid]	2.5 min	3.6 min	5 min	19.5 min	35.5 min	131 min	465 min	around 48 hours	
OCl [hypochlorite ion, hypochlorite]									up to 120 times
